Data from PMC7552917, “Systematic exploration of different E3 ubiquitin ligases: an approach towards potent and selective CDK6 degraders” (Chemical Science, 2020).
pIC50: −log10 of the molar value. Read-outs that look alike come from different tables or passages of the source.

What was measured:
[1] = elog D7.4 by chromatographic (HPLC) method; type: physicochemical; details: Polaris C18-A column, pH 7.4, read-out: elog D7.4 (experimental distribution coefficient at pH 7.4)
CDK4 = molecular target: T1, CDK4 (Homo sapiens, UniProt P11802); test: CDK4 degradation, western blot of MM.1S cells; type: cell-based; details: 16 h; for remaining activity at 0.1 µM: MM1.S, read-out: D CDK4: remaining CDK4 levels
T1 construct: Percentage values are normalized to DMSO-treated MM.1S cells and the respective loading controls; endogenous in cells; host or cells: MM.1S (human multiple myeloma)

CDK6 = molecular target: T2, CDK6 (Homo sapiens, UniProt Q00534); test: CDK6 degradation, western blot of MM.1S cells; type: cell-based
T2 construct: Percentage values are normalized to DMSO-treated MM.1S cells and the respective loading controls; endogenous in cells; host or cells: MM.1S (human multiple myeloma)

HEL cells = test: Cell viability assay (CellTiter-Glo), HEL cells; type: cell-based; details: Homo sapiens, 96 h
Description: (§1) Multiple myeloma, leukaemia, and murine cell lines:
(§2) Cells were seeded in 96-well plates with media containing indicated concentrations of respective compounds and plates were incubated at 37 °C for 96 hours. Readout was performed with CellTiter-Glo® Luminescent Cell Viability Assay (Promega) according to the manufacturer’s protocol and luminescence was measured with POLARStar Omega plate reader (BMG LabTech). All results were normalized to non-treated conditions and data represent mean ±SD of biological triplicates. […]
(§3) Dose response curves were modeled and plotted by using GraphPad Prism software (GraphPad Software). Statistical analysis was performed using GraphPad Prism software (GraphPad Software).
(§4) Variance of biological replicates is represented as the standard error of the mean (SEM) or as the […]

MDA-MB-231 cells [2] = test: Cell viability assay (CellTiter-Glo), MDA-MB-231 breast cancer cells; type: cell-based, human; details: 96 h
Description: Breast cancer cell lines:
To access the compound effect on cell viability, cells were plated in 384-well tissue culture-treated plates (Greiner Bio One). Twenty-four hours later, tested compounds were added into culture to the desired concentrations. Cell viability was measured by using CellTiter-Glo® Luminescent Cell Viability Assay (Promega) at day 4 or day 7 post-treatment and normalized by non-treated controls. […]
as §3, §4

[3] = test system: MM.1S, LP-1, AMO-1, MOLM-13, HEL, KG-1, K562, Nalm-6; test: Cell viability assay (CellTiter-Glo), multiple myeloma and leukemia cell lines; type: cell-based, human; details: MM.1S, LP-1, AMO-1, MOLM-13, HEL, KG-1, K562, Nalm-6; 96 h, 0.1 or 1 μM
Description: as §1, §2, §3, §4

MDA-MB-231 cells [4] = test: Cell migration (wound-healing) assay; type: cell-based, human; details: 0.1 μM, 24 h post-scratch
Description: In total 800.000 MDA-MB-231 breast cancer cells were seeded on uncoated 24-well plates (Starlab).
After 24 h DMEM medium (Pan Biotech) was removed, wells were washed twice with PBS and incubated with 0.1 µM palbociclib, 0.1 µM 34, 0.1 µM VH298 or DMSO in fresh FCS-free medium.
After 24 h of incubation, a scratch was conducted with a 100 µL pipette tip (Starlab), medium was removed, wells were washed twice with PBS and again incubated with fresh FCS-free medium containing the compounds at the aforementioned concentrations. Wound healing was observed microscopically for 24 h with 10-fold magnification (Axiovert 100, Zeiss, Germany). Migration speed was quantified according to the reduced scratch wound area over time.
as §3, §4

[5] = Susceptibility to hydrolysis in buffer, LC/MS; type: physicochemical; details: buffer pH 1, 24 h, 37 °C
Description: Next, we investigated the persistence of CDK6 degradation after single drug exposure. […] The differences were even more pronounced when conducting a drug washout-step, showing that while BSJ-03-123 kept CDK6 protein below 50% for a maximum of 6 h, CDK6 degradation mediated by PROTACs 27 and 34 was more persistent and stable for up to 72 h (Fig. 4E and S10, ESI ^†). […] Since these degraders mainly differ in the ligase-binding part, we hypothesized that the deviations in the long-term experiments (Fig. 5A) are due to chemical inactivation of the CRBN ligand. We then tested compounds 27, 34 (VHL-based) and BSJ-03-123 (8, CRBN-based) for susceptibility to hydrolysis. These PROTACs were incubated in two different buffers for 24 h at 37 °C and aliquots were analysed by LC/MS.
Fig. 5 (A) Quantification of long-term treatment experiments (see Fig. S9, ESI ^†) and (B) drug stability data at pH 1 and pH 7.4. Acetonitrile solutions of the PROTACs were mixed with two different buffers and incubated for 24 hours at 37 °C. Subsequently, aliquots were analysed by LC/MS and normalized to acetonitrile solutions.

T1 sequence (P11802 whole entry): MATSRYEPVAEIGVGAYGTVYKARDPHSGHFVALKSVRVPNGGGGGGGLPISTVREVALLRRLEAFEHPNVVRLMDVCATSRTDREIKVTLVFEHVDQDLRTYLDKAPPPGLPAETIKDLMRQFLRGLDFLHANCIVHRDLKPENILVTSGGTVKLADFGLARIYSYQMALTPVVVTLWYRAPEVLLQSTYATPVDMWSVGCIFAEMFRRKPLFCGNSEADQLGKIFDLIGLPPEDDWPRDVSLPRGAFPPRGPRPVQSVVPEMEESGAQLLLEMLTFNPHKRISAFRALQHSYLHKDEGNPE
T2 sequence (Q00534 whole entry): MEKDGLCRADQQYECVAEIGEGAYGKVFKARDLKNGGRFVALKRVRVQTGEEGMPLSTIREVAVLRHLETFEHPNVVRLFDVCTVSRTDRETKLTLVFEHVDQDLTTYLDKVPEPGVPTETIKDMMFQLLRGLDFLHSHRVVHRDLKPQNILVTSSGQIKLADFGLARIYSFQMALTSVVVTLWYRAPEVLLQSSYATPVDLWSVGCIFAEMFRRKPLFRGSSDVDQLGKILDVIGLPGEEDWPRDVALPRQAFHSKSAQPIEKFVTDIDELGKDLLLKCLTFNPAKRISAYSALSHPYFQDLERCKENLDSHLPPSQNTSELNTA

SMILES | chromatographic logD [1] | remaining activity at 0.1 µM (CDK4; 0.1 μM, MM.1S cells, normalized to DMSO (100%)) [%] | DC50 (CDK4; MM.1S cells) [nM] | Selectivity ratio D CDK4/D CDK6 for the degradation of CDK6 over CDK4 (CDK6; 0.1 μM, 16 h, MM.1S cells) | remaining activity at 0.1 µM (CDK6; MM1.S, 0.1 μM, 16 h, MM.1S cells, normalized to DMSO (100%), read-out: D CDK6: remaining CDK6 levels) [%] | remaining activity at 1 µM (CDK6; MM1.S, 1 μM, 16 h, MM.1S cells, normalized to DMSO (100%), read-out: D CDK6: remaining CDK6 levels) [%] | Dmax (CDK6; MM1.S, MM.1S cells, 16 h, at a concentration as low as 100 nM, read-out: Dmax: maximum of CDK6 degradation) [%] | Time CDK6 degradation persists (CDK6 protein below 50%) after drug washout (CDK6; MM.1S cells, 0.1 μM for 16 h, then washout with PBS) | DC50 (CDK6; MM.1S cells, 16 h, 1 μM value excluded (hook effect)) [nM] | Persistence of CDK6 degradation after single drug exposure (long-term treatment) (CDK6; MM.1S cells, no washout) | pIC50 (HEL cells) | Inhibitory activity on cell viability relative to palbociclib (MDA-MB-231 cells [2]) | Effect on cell proliferation [3] | Reduction of wound healing (MDA-MB-231 cells [4]) | Stability to hydrolysis at pH 1 [5] | pIC50 (MDA-MB-231 cells [2]; Homo sapiens) | remaining activity at 0.1 µM (CDK4) [%] | remaining activity at 0.1 µM (CDK6; MM1.S, 16 h, read-out: D CDK6: remaining CDK6 levels) [%]
CC(=O)c1c(C)c2cnc(Nc3ccc(N4CCN(CCOCCOCCOc5cc(-c6scnc6C)ccc5CNC(=O)[C@@H]5C[C@@H](O)CN5C(=O)[C@@H](NC(=O)C5(F)CC5)C(C)(C)C)CC4)cn3)nc2n(C2CCCC2)c1=O [34 (CST651)] | 3.1 | 44 | 20 | 31 | 1.4 | 8.5 | > 95 | up to 72 h | 5.1 | satisfactory CDK6 level suppression even after 96 h | 6.35 | inhibitory activity comparable to palbociclib | inhibited cell proliferation | 29% | stable | – | – | –
CC(=O)c1c(C)c2cnc(Nc3ccc(N4CCNCC4)cn3)nc2n(C2CCCC2)c1=O [palbociclib, reference compound] | – | – | – | – | – | – | – | – | – | – | 5.38 | – | – | 17% | – | 6.59 | – | –
Cc1ncsc1-c1ccc(CNC(=O)[C@@H]2C[C@@H](O)CN2C(=O)[C@@H](NC(=O)C2(C#N)CC2)C(C)(C)C)cc1 [4 (VH298), VH298, reference compound] | – | – | – | – | – | – | – | – | – | – | – | – | – | did not affect the ability of MDA-MB-231 cells to migrate | – | – | > 95 | > 95
